Test results as given in patent US12486280B2, “CDK inhibitors and uses thereof” (California Institute of Technology, priority 2018, dated 2025).
Converted amounts (≈) assume the structure as drawn. Read-outs that look alike come from different tables or passages of the source.

Legend:
CDK4 = CDK4 (Homo sapiens (Human), UniProt P11802); experiment: Cdk4 and 6 Enzymatic Inhibition Assay (radiometric 33PanQinase, Ki determination); format: biochemical
Experimental: (§1) 10 distinct concentrations were prepared, with a dilution endpoint of 6×10^−9 M in 100% DMSO. 100% DMSO was used as a control. 10 μL from each of the serial dilutions were aliquoted into separate wells of a 96-well plate and 90 μL of water were added to each of those wells. The plate was shaken thoroughly, and 5 μL from each of the plate's wells were transferred into wells of the assay plate. The final volume of wells in the assay plate was 50 μL. A11 compounds were tested at 10 assay concentrations in the range from 2×10^−6 M to 6×10^−11 M. The final DMSO concentration in the wells of the assay plate was 1% in all cases.
(§2) A radiometric protein kinase assay (33PanQinase® Activity Assay) was used for measuring the kinase activity of six protein kinases. A11 kinase assays were performed in 96-well FlashPlates™ from PerkinElmer (Boston, MA, USA). The assay for all protein kinases contained 70 mM HEPES-NaOH pH 7.5, 3 mM MgCl2, 3 mM MnCl2, 3 μM Na-orthovanadate, 1.2 mM DTT, 50 μg/mL PEG20000, ATP [γ-33P]-ATP (approx. 9×1005 cpm per well), protein kinase and substrate. The reaction cocktails were incubated at 30° C. for 60 minutes. The reaction was stopped with 50 μL of 2% (v/v) H3PO4, and plates were aspirated and washed two times with 200 μL 0.9% (w/v) NaCl. Incorporation of ^33Pi was determined with a microplate scintillation counter (Microbeta, Wallac).

CDK6 = CDK6 (Homo sapiens (Human), UniProt Q00534); experiment: as above; format: biochemical
CDK6, sequence (Q00534 whole entry): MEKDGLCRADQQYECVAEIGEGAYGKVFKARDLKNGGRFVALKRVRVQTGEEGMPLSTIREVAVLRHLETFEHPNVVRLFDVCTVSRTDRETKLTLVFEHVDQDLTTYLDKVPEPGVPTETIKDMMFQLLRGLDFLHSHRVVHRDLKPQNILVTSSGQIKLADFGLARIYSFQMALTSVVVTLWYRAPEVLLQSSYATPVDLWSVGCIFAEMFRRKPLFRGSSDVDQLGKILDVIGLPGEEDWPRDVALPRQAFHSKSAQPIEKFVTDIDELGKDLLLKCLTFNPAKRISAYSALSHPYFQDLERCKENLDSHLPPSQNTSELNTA
CDK6, sequence (P24385 whole entry partner): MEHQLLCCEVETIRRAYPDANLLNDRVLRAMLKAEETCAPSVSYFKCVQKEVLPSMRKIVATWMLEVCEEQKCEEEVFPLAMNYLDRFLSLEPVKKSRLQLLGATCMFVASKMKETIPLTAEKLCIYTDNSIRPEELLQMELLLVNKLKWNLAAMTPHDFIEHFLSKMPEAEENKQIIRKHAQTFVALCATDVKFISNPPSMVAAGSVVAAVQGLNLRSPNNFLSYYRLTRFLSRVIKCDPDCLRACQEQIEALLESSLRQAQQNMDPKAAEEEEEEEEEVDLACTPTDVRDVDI
Experimental: as §1, §2

[1] = system: drug-sensitive cell lines of Table 2 (EFM-19, MDA-MB-453, T-47D, ZR-75-1, NCI-H441, OVTOKO, NCI-H1838); experiment: Cell Line Growth Retardation Assay, sensitive cohort; format: cell-based, human; conditions: for IC50: Homo sapiens, geometric mean over sensitive cohort, 6 days growth, read-out: AvgSensIC50; for Ther Window: average IC50 drug-resistant group divided by average IC50 drug-sensitive group
Experimental: (§3) Cells were seeded at densities of 1,000-5,000 cells per well in 48-well tissue culture plates. After a 24 hours rest period, cells were treated with compound at 10 μM, 2 μM, 0.4 μM, 0.08 μM, 0.016 μM, and 0.0032 μM. A group of cells were treated with the vehicle in which the compound was prepared and served as a control. The cells were grown in the presence of compounds for 6 days and were counted on day 0 and day 6. A11 cell counting was performed using a Synentec Cellavista plate imager. […] Growth inhibition was calculated as a ratio of cell population doublings in the presence of compound versus the absence of compound. […] IC50 values for each compound (see Table 3; reported in μM) were calculated by fitting curves to data points from each dose-response assay using the Proc NLIN function in SAS for Windows version 9.2 (SAS Institute, Inc.).
(§4) These sensitive and resistant cohorts were interrogated for response to each compound, and IC50s were calculated for each cell line using the same technique described above. Average IC50s for the sensitive and resistant cohorts were calculated as geometric means of the group. “Therapeutic Window” for each compound was calculated by dividing the average IC50 for the drug-resistant group by the average IC50 for the drug-sensitive group.

[2] = system: drug-resistant cell lines of Table 2 (NCI-H1437, OV207, HCC1806, NCI-H2172); experiment: Cell Line Growth Retardation Assay, resistant cohort; format: cell-based, human; conditions: Homo sapiens, […], geometric mean over resistant cohort; 6 days growth; read-out: AvgResIC50
Experimental: as §3, §4

[3] = Compound Solubility Assay (kinetic solubility); format: physicochemical
Experimental: The relative kinetic solubility of each compound was determined at both low (1.2) and neutral (7.4) pH. Compounds were prepared at 10 mM stocks. […] Compounds were allowed to shake at room temperature for 24 hours in 50 mM phosphate buffer pH 7.4, or in SGF buffer pH 1.2 at 37° C. for 24 hours.

[4] = Caco-2 Assay (Papp A to B); conditions: human, Caco-2, pH 7.4
[5] = system: CYP isozymes (IC50s averaged over the isozymes); experiment: CYP Enzymatic Inhibition Assay in human liver microsomes
Experimental: Inhibition of various CYP isozymes was measured for each compound using a CYP enzyme inhibition assay in human liver microsomes (HLM). Compounds and standard inhibitors were prepared at a 100× working solutions. Substrates or PBS were added to the corresponding wells followed by addition of compounds, solvent or positive control working solution to corresponding wells. HLMs were added to the pre-warmed (37° C.) plate and mixed with NADPH cofactor for 10 minutes at 37° C. The reaction was terminated by adding 400 μL cold stop solution (200 ng/mL Tolbutamide and 200 ng/mL Labetalol in ACN). The plate was centrifuged at 4,000 rpm for 20 minutes, and supernatant was transferred to 100 μL HPLC water followed by LC/MS/MS analysis.

[6] = Measurement of Compound Metabolic Stability in hepatocytes
Experimental: The metabolic stability of compounds was determined in hepatocytes from mice and rats. Compounds were diluted to 5 μM in Williams' Medium E from 10 mM stock solutions. 10 μL of each compound was aliquoted into a well of a 96-well plate and reactions were started by aliquoting 40 μL of a 625,000 cells/mL suspension into each well. The plate was incubated at 37° C. with 5% CO2. At each corresponding time point, the reaction was stopped by quenching with ACN containing internal standards (IS) at a 1:3. Plates were shaken at 500 rpm for 10 min, and then centrifuged at 3,220×g for 20 minutes. Supernatants were transferred to another 96-well plate containing a dilution solution. Supernatants were analyzed by LC/MS/MS. Compound half-life was estimated using the following equation:

hERG potassium channels = hERG potassium channels (Homo sapiens (Human), UniProt Q12809); experiment: hERG Inhibition Assay (QPatch automated patch clamp, CHO cells); conditions: percent of control current
hERG potassium channels, sequence (Q12809 whole entry): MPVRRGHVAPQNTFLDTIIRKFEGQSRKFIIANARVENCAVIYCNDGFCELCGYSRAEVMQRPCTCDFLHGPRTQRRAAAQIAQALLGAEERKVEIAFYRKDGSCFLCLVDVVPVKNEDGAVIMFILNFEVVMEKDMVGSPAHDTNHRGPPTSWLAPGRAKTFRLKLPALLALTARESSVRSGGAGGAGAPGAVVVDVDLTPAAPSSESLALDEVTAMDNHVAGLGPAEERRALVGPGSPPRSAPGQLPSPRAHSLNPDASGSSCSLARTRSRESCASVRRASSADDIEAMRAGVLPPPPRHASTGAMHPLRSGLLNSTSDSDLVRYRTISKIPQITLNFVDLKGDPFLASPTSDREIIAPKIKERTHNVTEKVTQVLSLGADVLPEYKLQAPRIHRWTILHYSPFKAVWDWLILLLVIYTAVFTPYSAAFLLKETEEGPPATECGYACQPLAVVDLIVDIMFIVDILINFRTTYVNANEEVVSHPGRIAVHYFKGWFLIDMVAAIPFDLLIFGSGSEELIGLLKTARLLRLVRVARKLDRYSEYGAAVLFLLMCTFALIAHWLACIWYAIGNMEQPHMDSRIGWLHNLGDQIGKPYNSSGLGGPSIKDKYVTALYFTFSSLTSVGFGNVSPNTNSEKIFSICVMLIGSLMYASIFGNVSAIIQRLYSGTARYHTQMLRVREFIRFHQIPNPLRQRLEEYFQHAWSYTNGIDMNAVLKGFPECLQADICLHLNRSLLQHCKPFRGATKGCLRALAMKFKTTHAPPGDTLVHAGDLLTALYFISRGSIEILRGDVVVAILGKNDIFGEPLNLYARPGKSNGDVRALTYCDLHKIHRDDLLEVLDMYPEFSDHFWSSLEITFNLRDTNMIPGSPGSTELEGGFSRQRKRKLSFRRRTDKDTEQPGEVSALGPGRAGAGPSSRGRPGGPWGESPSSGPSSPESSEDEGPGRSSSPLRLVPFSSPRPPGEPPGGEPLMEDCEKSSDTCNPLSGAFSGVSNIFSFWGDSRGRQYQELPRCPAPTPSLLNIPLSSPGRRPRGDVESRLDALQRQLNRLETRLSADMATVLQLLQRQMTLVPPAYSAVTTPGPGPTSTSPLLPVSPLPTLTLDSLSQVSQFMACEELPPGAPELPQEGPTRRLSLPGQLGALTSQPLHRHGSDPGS
Experimental: Effects of compounds on hERG potassium channel conductance was assessed using the automated patch clamp method QPatch^HTX. Compounds were prepared at 10 mM stocks. CHO cells stably expressing hERG potassium channels were used for this assay. Cells were cultured in a humidified and air-controlled 5% CO2) incubator at 37° C. Compound stocks and the positive control Amitriptyline were dissolved in 100% DMSO to make various solution concentrations. These solutions were further diluted into extracellular solution to achieve final concentrations for testing. The final DMSO concentration in extracellular solution was 0.30%. The hERG QPatch^HTX assay was conducted at room temperature.
The following voltage command protocol was used: • From the holding potential of −80 mV, the voltage was first stepped to −50 mV for 80 ms for leak subtraction, and then stepped to +20 mV for 4,800 ms to open hERG channels. • After which, the voltage was stepped back down to −50 mV for 5,000 ms, causing a “rebound” or tail current, which was measured and collected for data analysis. • Finally, the voltage was stepped back to the holding potential of −80 mV for 3,100 ms.
For each experiment, three additions of 5 μL of the vehicle were applied, followed by 30 runs of the voltage command protocol for a baseline period. Then, the ascending doses of each compound were added with three repetitions (5 μL of compound each time).

[7] = 50 mM phosphate buffer, pH 7.4, aqueous buffer, kinetic from dmso stock, read-out: KS7
[8] = simulated gastric fluid, kinetic from dmso stock, kinetic solubility, SGF buffer pH 1.2, 37° C., 24 hours, read-out: KS1

CDK4, sequence (P11802 whole entry): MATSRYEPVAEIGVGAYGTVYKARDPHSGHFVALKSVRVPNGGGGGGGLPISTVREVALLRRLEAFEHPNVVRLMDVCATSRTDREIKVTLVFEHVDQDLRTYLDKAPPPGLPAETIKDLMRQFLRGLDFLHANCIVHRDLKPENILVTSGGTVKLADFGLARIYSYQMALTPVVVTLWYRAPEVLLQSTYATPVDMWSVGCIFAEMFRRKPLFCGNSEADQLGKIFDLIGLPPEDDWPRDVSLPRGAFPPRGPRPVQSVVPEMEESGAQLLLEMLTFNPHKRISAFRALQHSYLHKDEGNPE
CDK4, sequence (P24385 whole entry partner): as the sequence (P24385 whole entry partner) above

| Ki (CDK4) [nM] | Ki (CDK6) [nM] | IC50 [1] [nM] | IC50 [2] [nM] | solubility kinetic at 24 h [3, 7] [µM] | solubility kinetic at 24 h [3, 8] [µM] | Papp A→B at 2 h, 2 μM [4] [×10⁻⁶ cm/s] | IC50 at 10 min [5] [nM] | half-life at 1 μM [6] [min] | solubility kinetic at 24 h ([3]; kinetic solubility, SGF buffer pH 1.2, 37° C., 24 hours, read-out: KS1) [µM] | SMILES | Ther Window [1] | hERG (hERG potassium channels) [%] |
| --- | --- | --- | --- | --- | --- | --- | --- | --- | --- | --- | --- | --- |
| 2.04 | 7.39 | 70 | 1000 | 163 (≈ 96.6 µg/mL) | 200 (≈ 119 µg/mL) | 0.05 | 37200 | 130 |  | CCN(CC)CCC1(C)CN(Cc2ccc(Nc3ncc(F)c(-c4cc(F)c5nc(C)n(C(C)C)c5c4)n3)nc2)CCO1 (stereo in doubt) [Compound A3, (S)—N-(5-((2-(2-(diethylamino)ethyl)-2-methylmorpholino)methyl)pyridin-2-yl)-5-fluoro-4-(4-fluoro-1-isopropyl-2-methyl-1H-benzo[d]imidazol-6-yl)pyrimidin-2-amine] | 13.77 | 26.68 |
| 1.76 | 11.3 | 170 | 970 | 128 (≈ 76.1 µg/mL) | 200 (≈ 119 µg/mL) | 2.35 | 30900 | 4.24 |  | CC(=O)N(C)CC[C@]1(C)CN(Cc2ccc(Nc3ncc(F)c(-c4cc(F)c5nc(C)n(C(C)C)c5c4)n3)nc2)CCO1 [Compound A8, (R)—N-(2-(4-((6-((5-fluoro-4-(4-fluoro-1-isopropyl-2-methyl-1H-benzo[d]imidazol-6-yl)pyrimidin-2-yl)amino)pyridin-3-yl)methyl)-2-methylmorpholin-2-yl)ethyl)-N-methylacetamide] | 5.64 | 11.87 |
| 2.54 | 14.5 | 120 | 1000 | 1 (≈ 0.619 µg/mL) | 200 (≈ 124 µg/mL) | 2.14 | 26100 | 15.3 |  | Cc1nc2c(F)cc(-c3nc(Nc4ccc(CN5CCO[C@](C)(CCNCC(F)(F)F)C5)cn4)ncc3F)cc2n1C(C)C [Compound A9, (R)-5-fluoro-4-(4-fluoro-1-isopropyl-2-methyl-1H-benzo[d]imidazol-6-yl)-N-(5-((2-methyl-2-(2-((2,2,2-trifluoroethyl)amino)ethyl)morpholino)methyl)pyridin-2-yl)pyrimidin-2-amine] | 8.59 | 21.86 |
| 2.18 | 12.8 | 110 | 860 | 1 (≈ 0.613 µg/mL) |  | 2.62 | 21600 | 13.1 | 200.00 (≈ 123 µg/mL) | Cc1nc2c(F)cc(-c3nc(Nc4ccc(CN5CCO[C@](C)(CCN6CC(F)(F)C6)C5)cn4)ncc3F)cc2n1C(C)C [Compound A12, (R)—N-(5-((2-(2-(3,3-difluoroazetidin-1-yl)ethyl)-2-methylmorpholino)methyl)pyridin-2-yl)-5-fluoro-4-(4-fluoro-1-isopropyl-2-methyl-1H-benzo[d]imidazol-6-yl)pyrimidin-2-amine] | 8.17 | 19.54 |
| 1.55 | 7.62 | 90 | 920 |  |  | 0.11 | 26800 | 67.7 |  | COC1(C)CN(CC[C@]2(C)CN(Cc3ccc(Nc4ncc(F)c(-c5cc(F)c6nc(C)n(C(C)C)c6c5)n4)nc3)CCO2)C1 [Compound A18, (R)-5-fluoro-4-(4-fluoro-1-isopropyl-2-methyl-1H-benzo[d]imidazol-6-yl)-N-(5-((2-(2-(3-methoxy-3-methylazetidin-1-yl)ethyl)-2-methylmorpholino)methyl)pyridin-2-yl)pyrimidin-2-amine] | 10.77 | 21.45 |
| 1.37 | 7.07 | 190 | 970 | 139 (≈ 84.2 µg/mL) | 200 (≈ 121 µg/mL) | 0.91 | 29000 | 16.8 |  | Cc1nc2c(F)cc(-c3nc(Nc4ccc(CN5CCO[C@](C)(CCN6CCOCC6)C5)cn4)ncc3F)cc2n1C(C)C [Compound A19, (R)-5-fluoro-4-(4-fluoro-1-isopropyl-2-methyl-1H-benzo[d]imidazol-6-yl)-N-(5-((2-methyl-2-(2-morpholinoethyl)morpholino)methyl)pyridin-2-yl)pyrimidin-2-amine] | 5.12 | 18.14 |
| 0.55 | 3.69 | 80 | 1000 |  |  | 0.07 | 24800 | 101 |  | CC[C@@]1(CCN(C)C)CN(Cc2ccc(Nc3ncc(F)c(-c4cc(F)c5nc(C)n(C(C)C)c5c4)n3)nc2)CCO1 [Compound A20, (R)—N-(5-((2-(2-(dimethylamino)ethyl)-2-ethylmorpholino)methyl)pyridin-2-yl)-5-fluoro-4-(4-fluoro-1-isopropyl-2-methyl-1H-benzo[d]imidazol-6-yl)pyrimidin-2-amine] | 12.21 | 32.36 |
| 0.52 | 3.55 | 80 | 870 | 15.6 (≈ 8.57 µg/mL) | 200 (≈ 110 µg/mL) | 0.05 | 35800 | 202 |  | CNCC[C@@]1(C)CN(Cc2ccc(Nc3ncc(F)c(-c4cc(F)c5nc(C)n(C(C)C)c5c4)n3)nc2)CCO1 [Compound A22, (S)-5-fluoro-4-(4-fluoro-1-isopropyl-2-methyl-1H-benzo[d]imidazol-6-yl)-N-(5-((2-methyl-2-(2-(methylamino)ethyl)morpholino)methyl)pyridin-2-yl)pyrimidin-2-amine] | 10.57 | 15.58 |
| 1.73 | 8.63 | 130 | 770 | 140 (≈ 81.2 µg/mL) | 200 (≈ 116 µg/mL) | 0.03 | 51500 | 89.4 |  | Cc1nc2c(F)cc(-c3nc(Nc4ccc(CN5CCO[C@](C)(C[C@@H](C)N(C)C)C5)cn4)ncc3F)cc2n1C(C)C [Compound A26] | 6.10 | 39.08 |
| 1.8 | 10.5 | 170 | 890 |  |  | 1.95 | 16400 | 5.84 |  | Cc1nc2c(F)cc(-c3nc(Nc4ccc(CN5CCO[C@](C)(CCN(C)CC(F)F)C5)cn4)ncc3F)cc2n1C(C)C [Compound A29, (R)—N-(5-((2-(2-((2,2-difluoroethyl)(methyl)amino)ethyl)-2-methylmorpholino)methyl)pyridin-2-yl)-5-fluoro-4-(4-fluoro-1-isopropyl-2-methyl-1H-benzo[d]imidazol-6-yl)pyrimidin-2-amine] | 5.36 | 25.45 |
